Values after ≈ are worked out from the molar mass of the structure shown.
What was measured:
Experiment in all cases: In vitro antibacterial evaluation: minimum inhibitory concentration (MIC), broth dilution method
Format in all cases: cell-based
[1] = tested on: Streptococcus sp.; conditions: broth dilution, 5×10^5 CFU/mL, 18 hours at 35° C.
Protocol: (§1) The minimum inhibitory concentration (MIC), the lowest concentration of the antibiotic which inhibits growth of the test organism, is determined by the broth dilution method using Muller-Hinton II […] (Baltimore Biological Laboratories) following the recommendations of the National Committee for Clinical Laboratory Standards [Methods for dilution antimicrobial susceptibility tests for bacteria that grow aerobically, approved standard M7-A2, National Committee for Clinical Laboratory Standards, Villanova, Pa].
(§2) An inoculum level of 5×10^5 CFU/mL, and a range of antibiotic concentrations (64-0.06 μg/mL) is used. […] The test organisms include a spectrum of Gram-positive bacteria comprised of Staphylococcus sp., Streptococcus sp. and Enterococcus sp. These organisms include recent clinical isolates that are resistant to methicillin, penicillin and/or vancomycin.

[2] = tested on: Escherichia coli; conditions: 5×10^5 CFU/mL, 18 hours at 35° C.
Protocol: as §1, §2

[3] = tested on: Staphylococcus sp.; conditions: for MIC Staphylococcus aureus (ATCC 29213): strain ATCC 29213; for MIC Staphylococcus aureus (GC 1131): strain GC 1131; for MIC Staphylococcus aureus (GC 4541): strain GC 4541; for MIC Staphylococcus aureus (GC 4542): strain GC 4542; for MIC Staphylococcus aureus-SMITH (GC 4543): strain GC 4543; for MIC Staphylococcus aureus (GC 4544): strain GC 4544; for MIC Staphylococcus aureus (GC 4545): strain GC 4545; for MIC Staphylococcus haemolyticus (GC 4546): strain GC 4546; for MIC Coagulase Negative Staphylococcus (GC 4547): strain GC 4547; for MIC Coagulase Negative Staphylococcus (GC 4548): strain GC 4548; for MIC Coagulase Negative Staphylococcus (GC 4549): strain GC 4549; for MIC Coagulase Negative Staphylococcus (GC 4551): strain GC 4551; for MIC Coagulase Negative Staphylococcus (ID-3941): strain ID-3941
Protocol: as §1, §2

[4] = tested on: Enterococcus sp.; conditions: broth dilution, 5×10^5 CFU/mL, 18 hours at 35° C.
Protocol: as §1, §2

[5] = broth dilution, 18 hours at 35° C.

MIC Streptococcus agalactiae (GC 4564) [1]: <0.5 µg/mL
MIC Streptococcus pneumoniae (GC 4565) [1]: <0.5 µg/mL
MIC Streptococcus pyogenes (ID-3187) [1]: <0.5 µg/mL
MIC Escherichia coli (ATCC 25922) [2]: 16 µg/mL (≈ 11.4 µM)
MIC Staphylococcus aureus (ATCC 29213) [3]: 1 µg/mL (≈ 0.712 µM)
MIC Staphylococcus aureus (ATCC 29213) [3, 5]: 1 µg/mL (≈ 0.712 µM)
MIC Staphylococcus aureus (GC 1131) [3]: 1 µg/mL (≈ 0.712 µM)
MIC Staphylococcus aureus (GC 1131) [3, 5]: 1 µg/mL (≈ 0.712 µM)
MIC Staphylococcus aureus (GC 4541) [3]: 1 µg/mL (≈ 0.712 µM)
MIC Staphylococcus aureus (GC 4541) [3, 5]: 1 µg/mL (≈ 0.712 µM)
MIC Staphylococcus aureus (GC 4542) [3]: 1 µg/mL (≈ 0.712 µM)
MIC Staphylococcus aureus (GC 4542) [3, 5]: 1 µg/mL (≈ 0.712 µM)
MIC Staphylococcus aureus-SMITH (GC 4543) ([3]; 18 hours at 35° C.): 1 µg/mL (≈ 0.712 µM)
MIC Staphylococcus aureus-SMITH (GC 4543) [3, 5]: 1 µg/mL (≈ 0.712 µM)
MIC Staphylococcus aureus (GC 4544) [3]: 1 µg/mL (≈ 0.712 µM)
MIC Staphylococcus aureus (GC 4544) [3, 5]: 1 µg/mL (≈ 0.712 µM)
MIC Staphylococcus aureus (GC 4545) [3]: 1 µg/mL (≈ 0.712 µM)
MIC Staphylococcus aureus (GC 4545) [3, 5]: 1 µg/mL (≈ 0.712 µM)
MIC Coagulase Negative Staphylococcus (GC 4547) [3]: 1 µg/mL (≈ 0.712 µM)
MIC Coagulase Negative Staphylococcus (GC 4547) [3, 5]: 1 µg/mL (≈ 0.712 µM)
MIC Coagulase Negative Staphylococcus (GC 4548) [3]: <0.5 µg/mL
MIC Coagulase Negative Staphylococcus (GC 4548) [3, 5]: <0.5 µg/mL
MIC Coagulase Negative Staphylococcus (GC 4549) [3]: 1 µg/mL (≈ 0.712 µM)
MIC Coagulase Negative Staphylococcus (GC 4549) [3, 5]: 1 µg/mL (≈ 0.712 µM)
MIC Coagulase Negative Staphylococcus (GC 4551) [3]: 1 µg/mL (≈ 0.712 µM)
MIC Coagulase Negative Staphylococcus (GC 4551) [3, 5]: 1 µg/mL (≈ 0.712 µM)
MIC Coagulase Negative Staphylococcus (ID-3941) [3]: 1 µg/mL (≈ 0.712 µM)
MIC Coagulase Negative Staphylococcus (ID-3941) [3, 5]: 1 µg/mL (≈ 0.712 µM)
MIC Enterococccus avium (GC 4558) [4]: 2 µg/mL (≈ 1.42 µM)
MIC Enterococccus faecalis (ATCC 29212) [4]: 2 µg/mL (≈ 1.42 µM)
MIC Enterococccus faecalis (GC 4552) [4]: 2 µg/mL (≈ 1.42 µM)
MIC Enterococccus faecalis (GC 4553) [4]: 2 µg/mL (≈ 1.42 µM)
MIC Enterococccus faecalis (GC 4554) [4]: 2 µg/mL (≈ 1.42 µM)
MIC Enterococccus faecium (GC 2243) [4]: 1 µg/mL (≈ 0.712 µM)
MIC Enterococccus faecium (GC 4556) [4]: 2 µg/mL (≈ 1.42 µM)
MIC Enterococccus faecium (GC 4557) [4]: 1 µg/mL (≈ 0.712 µM)
MIC Enterococcus faecalis (GC 2242) [4]: 2 µg/mL (≈ 1.42 µM)
SMILES: CCCCCCCC1OCC2OC(OC3C(CO)OC(Oc4ccc(CC5NC(=O)C(C(C)c6ccccc6)NC(=O)CNC(=O)C(CO)NC(=O)C(C(O)C6CNC(=N)N6C6OC(CO)C(O)C(O)C6O)NC(=O)C(C(O)C6CNC(=N)N6)NC5=O)cc4)C(O)C3O)C(O)C(O)C2O1 (stereo not drawn) [Example 109, Cyclo[glycyl-β-methylphenylalanyl-O-[4-O-(4,6-O-octylidenehexopyranosyl)hexopyranosyl]-tyrosyl-3-(2-iminoimidazoliclin-4-yl)seryl-3-(3-hexopyranosyl-2-iminoimidazolidin-4-yl)-serylseryl]]
MIC Staphylococcus haemolyticus (GC 4546) [3]: 1 µg/mL (≈ 0.712 µM)
MIC Staphylococcus haemolyticus (GC 4546) [3, 5]: 1 µg/mL (≈ 0.712 µM)

From patent publication US8247211B2, “Glycopeptide antibiotics” (American Cyanamid Company, priority 2001, dated 2012)
